Results on two compounds are retold here after patent publication US11957766B2, “HNQO1-activatable fluorescent probe for imaging cancer cells in-vitro and in-vivo” (Texas Tech University System, priority 2019, dated 2024).

Data set [1] concerns A549 and NCI-H460 cancer cells, IMR 90 and HUVECs normal cells. Briefly: Cytotoxicity of NIR-ASM, resazurin reduction assay. As to conditions: up to 100 μM, 72 h. Format: cell-based, human. How it is done: Assessment of NIR-ASM biocompatibility. Inspired by the excellent photophysical properties of NIR-ASM in monitoring the NQO1 activity in vitro, the inventors determined the biocompatibility of NIR-ASM both in vitro and in vivo before using for endogenous applications. […] Further, to evaluate NIR-ASM tolerability and toxicity in vivo, CD1 mice were grouped for the administration of vehicle (PEG:H2O:EtOH) alone or 5 mg/kg of NIR-ASM five times a week for five weeks. The average mouse weights were monitored as a surrogate marker to the toxicity.
Cell viability assays. NIR-ASM was evaluated for in vitro cytotoxicity in human cancer (A549 and H460) and normal (IMR90 and HUVECs) cell lines following a protocol of 72 h continuous drug exposure using resazurin reduction assay. The cell lines were grown in 96-well microtiter plates at a density of 5000 cells per well. The plates were incubated for 24 h prior to addition of NIR-ASM. Ten concentrations of NIR-ASM were evaluated in quadruplicate sets. Plates were incubated for a further 72 h and replaced with 20 μL resazurin 0.01% (w/v) containing the medium. After 2 h, the fluorescence was measured using a Tecan Reader (Infinite m200 Pro) at a 544 nm excitation and 590 nm emission.
For orientation: Alamar Blue is a resazurin reagent that responds to reducing activity.

A further data set concerns DAOY and T98G cells. Briefly: Flow cytometry of NQ-DCP activation. Format: cell-based, human. As to conditions: 10 μM, λem=586/40, about 1×10^4 cells. As for the experimental part: Applicability of NQ-DCP for Flow Cytometry. Flow cytometry assays were used to assess the applicability of the NQ-DCP probe to rapidly detect and quantify tumor cells containing hNQO1. The probe was incubated with cell suspensions (DAOY and T98G) for 30 min and a flowcytometry was used to measure the fluorescence (λem=586/40) in about 1×10^4 individual cells.
Cell Culture, Fluorescence Imaging, and Flow Cytometry Analysis. Brain tumor cells and astrocytes were grown in Dulbecco's modified Eagle's (DMEM) medium containing 10% Fetal Bovine Serum and 1% penicillin/streptomycin in a humidified atmosphere of 5% CO2 at 37° C. For fluorescence imaging, initially, cells were seeded into 6-well plate and cultured overnight in respective media at 37° C. Media was replaced with fresh medium containing 10 μM NQ-DCP and incubated at 37° C. for 60 min and then the medium was replaced with PBS and live cells were imaged using a fluorescence microscope. For inhibitor study, cells were pretreated with NQO1 inhibitor ES936 (100 nM) for 6 h before adding the NQ-DCP. For determining endogenous hNQO1 activity in cancer cells using flow cytometry, about 10×10^4 cells were incubated with 10 μM of NQ-DCP for 60 min and were analyzed using flow cytometry.
For orientation: In flow cytometry, cells or beads pass a laser one at a time.

In the case of `CC1=C(C)C(=O)C(C(C)(C)CC(=O)Nc2ccc(/C=C/C3=CC(=C(C#N)C#N)CC(C)(C)C3)cc2)=C(C)C1=O` [NIR-ASM, (E)-N-(4-(2-(3-(dicyanomethylene)-5,5-dimethylcyclohex-1-en-1-yl)vinyl)phenyl)-3-methyl-3-(2,4,5-trimethyl-3,6-dioxocyclohexa-1,4-dien-1-yl)butanamide], in data set [1], the cytotoxicity entry is “not toxic”.

On to `CC1=C(C)C(=O)C(C(C)(C)CC(=O)Oc2ccc(/C=C/C3=CC(=C(C#N)C#N)CC(C)(C)C3)cc2)=C(C)C1=O` [NQ-DCP], for which the “flow cytometry fluorescence signal” value with DAOY and T98G cells is listed as “high-intensity unimodal distribution of signal”.
